What all share (type): cell-based
Test [1] deals with Candida famata wild type and regulatory mutants able to overproduce riboflavin on iron-rich medium. In words: Sensitivity after electroporation to 3CdSO4.8H20, Burkholder medium with 0.3 M sucrose (Table 20). More on the design: key: +++: strong growth; ++: weak growth; —: absence of growth. As for the experimental part:
(§1) Next, the toxicity of CdSO4 (0–25 μM) to regulatory mutants 2-5 and 4-48 and the C. famata wild strain was studied in the medium with sucrose (Table 20).
(§2) It was shown that all three strains appeared to be very sensitive to Cd^+2 ions without any differences between regulatory mutants and the wild-type strain.

For test [2] the test system is unchanged. Described as above. More on the design: key: +++: strong growth; ++: weak growth; +: very weak growth; —: absence of growth. As for the experimental part:
as §1, §2

Test [3] has as its system Candida famata regulatory mutants unable to overproduce riboflavin. In words: Sensitivity to monofluoroacetate, Burkholder medium with 0.5% glucose (Table 8). From the text:
(§3) In further experiments, the influence of the aconitase inhibitor, 2-monofluoroacetate (MFA), on the growth of C.famata regulatory mutants unable to overproduce riboflavin was studied in media with glucose (0.5%) or glycerol (0.5%) as the carbon sources.

Test [4] has the same test system. In words: Sensitivity to monofluoroacetate, Burkholder medium with 0.5% glycerol (Table 7). Particulars: MFA 0.2–0.4%.
Description: as §3

On to `O.O.O.O.O.O.O.O.O=S(=O)([O-])[O-].O=S(=O)([O-])[O-].O=S(=O)([O-])[O-].[Cd+2].[Cd+2].[Cd+2]` [CdSO4×8H2O], for which the growth entry in test [1] (#2-5, 5 μM) is on record as “++”; in test [1] (#2-5, 10 μM), “++”; in test [1] (#2-5, 25 μM), “—”; in test [1] (#4-48, 5 μM), “++”; in test [1] (#4-48, 10 μM), “++”; in test [1] (#4-48, 25 μM), “—”. Also, the growth result in test [1] (VKM Y-9, 5 μM) is “+++”; in test [1] (VKM Y-9, 10 μM), “++”; in test [1] (VKM Y-9, 25 μM), “—”; in test [2] (#2-5, 15 μM) it was “+”; in test [2] (#2-5, 20 μM), “+”; in test [2] (#4-48, 15 μM), “+”. Besides, the growth entry in test [2] (#4-48, 20 μM) was “+”; in test [2] (VKM Y-9, 15 μM), “+”; in test [2] (VKM Y-9, 20 μM), “+”.
For the molecule `O=C(O)CF` [MFA, 2-monofluoroacetate], the “effect on growth of most regulatory mutants” value in test [3] is on record as “did not inhibit growth”. Besides, in test [4], the “effect on growth of wild type VKM Y-9 and leu2 auxotroph L20105” value was “not inhibited at all”.

The values are drawn from patent publication US7009045B2 (priority 2000, dated 2006).
